# Results taken from EP4635488A1, “PHARMACEUTICAL COMPOSITION FOR PREVENTING OR TREATING BONE DISEASES” (Industry Foundation of Chonnam National University, priority 2022, dated 2024).
# Legend:
# [1] = test system: human IPSC-derived macrophages; assay: Human osteoclast differentiation model (TRAP staining / TRAP activity); type: cell-based; details: 10 days; 50 ng/mL hM-CSF and 100 ng/mL hRANKL
# Method: However, it is unclear whether 25-KR-03 has an inhibitory effect on human osteoclast differentiation. Accordingly, a human osteoclast differentiation model was established using human IPSC-derived macrophages. Cells were incubated with 50 ng/mL human M-CSF and 100 ng/mL RANKL to induce mature osteoclast formation.
# Specifically, in FIG. 7A, the inhibitory effect of 25-KR-03 on human osteoclast differentiation was analyzed through TRAP staining. Human IPSC-derived macrophages were treated with the indicated concentrations of 25-KR-03 for 10 days in the induction medium containing 50 ng/mL hM-CSF and 100 ng/mL hRANKL. After the formation of multinucleated osteoclasts, TRAP staining was performed to visualize the formed osteoclasts.
# [2] = test system: BMDMs; assay: Cell viability assay of BMM/BMDMs; type: cell-based, C57/BL6 mice; details: below 4 µM; 48 hours
# Method: (§1) Bone marrow cells (BMC) were obtained from 8-week-old female C57/BL6 mice by washing femurs and tibias with α-MEM. BMCs were then cultured overnight in full α-MEM containing 10% FBS, 100 U/mL penicillin, and 100 µg/mL streptomycin. Non-attached cells were collected and cultured with M-CSF (30 ng/ mL) for 3 days, and then the attached cells were used as BMM. All animal experiments were approved by Chonnam National University IACUC (approval number: CNU IACUC-YB-2019-49).
# (§2) To generate osteoclasts, BMMs were harvested and cultured in a complete medium containing 30 ng/mL M-CSF and 50 ng/mL RANKL with or without compounds for approximately 4 days to obtain mature osteoclasts. Differentiated osteoclasts were fixed with 4% formalin for 15 minutes, and then the cells were stained using a TRAP staining kit. The spread of osteoclast areas could be observed under the microscope. The viability of BMM (1 × 10^4 cells/well) was assessed in a 96-well plate using a cell viability assay kit as previously described.
# [3] = test system: OVX-induced osteoporosis mouse model; assay: OVX-induced osteoporosis mouse model (micro-CT, body weight); type: in vivo, C57BL/6 female mice
# Method: Specific pathogen-free facilities were used to grow mice. To investigate the effects of 25-KR-03 in vivo, the inventors established an OVX-induced osteoporosis mouse model as previously described. Seven-week-old C57BL/6 female mice were divided into four groups (Sham, OVX, 25-KR-03, and PMSA-3-Ac). Among them, the OVX, 25-KR-03, and PMSA-3-Ac groups underwent OVX surgery.
# After a 1-week recovery period, mice were intraperitoneally injected with 25-KR-03 or PMSA-3-Ac (20 mg/kg, dissolved in a mixture of 10 % Tween 80 and 10% DMSO) once daily for 4 weeks. The sham and control (OVX) groups received equal volumes of the mixture of 10 % Tween 80 and 10% DMSO once daily for 4 weeks. Body weights of the mice were measured weekly. When the mice were euthanized, the femurs were isolated and fixed in 4.0% paraformaldehyde for micro-computed tomography (micro-CT) analysis as previously performed.
# Micro-CT scanning was performed as in previous studies. The Quantum GX Micro-CT imaging system (PerkinElmer, Hopkinton, MA, USA) was used at the Korea Basic Science Institute (Gwangju, Korea).
# [4] = test system: RANKL-induced BMM; assay: In vitro osteoclast formation assay (TRAP staining / TRAP activity); type: cell-based, C57/BL6 mice
# Method: as §1, §2
# [5] = test system: F-actin belts of mature osteoclasts; assay: F-actin ring immunofluorescence analysis (phalloidin staining); type: cell-based, C57/BL6 mice
# Method: (§3) Bone resorption analysis was performed by a conventional method. Briefly, BMMs (2 × 10^4 cells/well) were seeded into a coated 48-well plate provided in the kit. After culturing with or without the indicated doses of 25-KR-03 and PMSA-3-Ac until mature osteoclasts were observed, 100 µL supernatant was harvested from each well and placed in a black polypropylene 96-well microplate. Fluorescence intensity was measured using a SpectraMax i3x fluorescence plate reader (excitation wavelength 485 nm; emission wavelength 535 nm). The decalcified pit area was visible under a microscope and calculated using ImageJ software. F-actin rings were visible using a rhodamine-coupled phalloidin staining assay (Thermo Fisher Scientific) as previously described.
# (§4) In FIG. 4C, the fluorescence intensity of each group after 6 days was measured at excitation and emission wavelengths of 485 nm and 535 nm, respectively. All experiments were repeated three times.
# [6] = test system: osteoclast bone resorption; assay: Bone resorption analysis on fluoresceine amine-labeled calcium phosphate plates; type: cell-based, C57/BL6 mice
# Method: as §3, §4
# [7] = test system: NFATc1; assay: Western blotting analysis of osteoclast proteins and NFATc1 nuclear translocation; type: cell-based, C57/BL6 mice
# Method: Total protein was extracted from osteoclasts and processed by a conventional method. To obtain total cell lysates, cells were lysed in ice-cold RIPA buffer for 30 min. After measuring the total protein concentration using the Enhanced BCA Protein Assay Kit, the protein was separated using 8-12% SDS-PAGE and transferred to a polyvinylidene fluoride membrane. Next, the membrane was blocked using 5% skim milk and incubated with a primary antibody (1:2,000 dilution) overnight. After incubation with a secondary antibody (1:2,000 dilution) for 1 hour, the membrane was washed and developed using an enhanced chemiluminescence (ECL) buffer as previously described. Relative protein expression was calculated by densitometric analysis using Image J software.
# Specifically, in FIG. 6A, immunoblotting was performed for analysis. Culture was performed with or without 25-KR-03 for the indicated days in induction medium. […] GAPDH/LaminB1 was used as a loading control.
# [8] = test system: osteoclast-specific genes; assay: Quantitative real-time PCR of osteoclast-specific genes; type: cell-based, C57/BL6 mice; details: Acp5, NFATc1, DC-STAMP, ATP6V0d2, MMP9 and Ctsk; 0, 1, 2, and 4 days
# Description: Total RNA from BMM was isolated using QIAzol RNA lysis reagent (Qiagen Sciences, Valencia, CA, USA).
# Specifically, FIGS. 5A to 5F show the results of measuring the relative mRNA levels of the indicated osteoclast-specific genes using qRT-PCR with or without 25-KR-03 treatment for 0, 1, 2, and 4 days. Black bars represent M-CSF and RANKL treatment groups ("Con") and gray bars correspond to 25-KR-03 treatment groups. Transcript levels were normalized to expression at day 0. All experiments were repeated three times.
smiles,measurement,setting,value
"COC(=O)c1cccc(NCC(=O)Nc2ccccc2Sc2ccccc2)c1 [Compound 25-KR-03, Methyl 3-((2-oxo-2-((2-(phenylthio)phenyl)amino)ethyl)amino)benzoate]",inhibitory effect on human osteoclast differentiation,[1],has bioactivity in both mouse and human cells
same,cell viability of BMDMs,[2],no significant effect
same,"prevention of bone loss (Tb.Th and BMD values, micro-CT of femur)","[3]; 20 mg/kg intraperitoneally once daily for 4 weeks after surgery, compared with the OVX group",slight but significant prevention of bone loss
same,body weight,"[3]; 20 mg/kg intraperitoneally once daily, 4 weeks",no significant weight reduction
same,inhibitory effect on osteoclast differentiation,"[4]; 2 µM, TRAP staining",almost complete inhibition
same,inhibition at 1 µM,"[4]; Mus musculus, 1 µM, osteoclast differentiation in RANKL-induced BMM, mean ± SD from at least three experiments, read-out: Inhibition rate (%)",72.3 ± 6.33%
same,inhibition at 2 µM,"[4]; Mus musculus, 2 µM, osteoclast differentiation in RANKL-induced BMM, mean ± SD from at least three experiments, read-out: Inhibition rate (%)",99.89 ± 0.04%
same,IC50,"[4]; Mus musculus, Differentiation of BMDM, based on TRAP activity, 0 to 4000 nM",323 nM
same,formation of multinucleated mature osteoclasts,"[4]; RANKL-induced, concentration range up to 4000 nM",completely blocked
same,actin ring formation,"[5]; at the indicated doses, RANKL/M-CSF-induced",inhibited
same,"osteoclast F-actin belt formation, inhibition compared with control inhibitor",[5]; versus PMSA-3-Ac (10 µM),more strongly than PMSA-3-Ac
same,resorption pit area,"[6]; 0.5, 1, and 2 µM, M-CSF and RANKL, 6 days",significantly reduced
same,fluorescence intensity,"[6]; dose-dependent manner, 6 days, excitation 485 nm, emission 535 nm",reduced
same,bone resorption inhibition compared with control inhibitor,[6]; versus PMSA-3-Ac,more effective than PMSA-3-Ac
same,NFATc1 protein levels in the nucleus,"[7]; BMDMs, 48 hours",significantly reduced
same,NFATc1 protein levels in the cytoplasm,"[7]; BMDMs, 48 hours, not significant",slightly increased
same,protein expression of Ctsk,[7]; Western blotting,significantly inhibited
same,"protein expression of NFATc1, Traf6, c-src, GSK3β and calcineurin A","[7]; Western blotting, compared to the control group",no significant effect
same,relative mRNA expression levels of RANKL-induced osteoclastogenesis-related genes,[8],obviously decreased
